In patent US9492471B2, “Methods of treating a disease or disorder associated with Bruton'S Tyrosine Kinase” (Celgene Avilomics Research, Inc., priority 2013, dated 2016):
Read-outs that look alike come from different tables or passages of the source.

Legend:
Test in all cases: HotSpot kinase profiling
Type in all cases: biochemical
CLK4 = target: T1, CLK4 (Homo sapiens, UniProt Q9HAZ1)
T1 construct: purchased Reaction Biology Corp
Experimental: (§1) The binding assay system for profiling kinase activity were based upon HotSpot technology (Reaction Biology Corp.; Malvern, Pa., USA) and utilized radio-isotope-based P81 filtration. […] Substrates for the various kinases tested against Compound 2 (substrate information available on the Reaction Biology Corp. website) were prepared fresh daily in Reaction Buffer. Any required cofactors were then added to the substrate solution. The identification and selection of the appropriate cofactor for each kinase is within the ability of a person skilled in the art. See, for example, Handbook of Assay Development in Drug Discovery, Ed. Lisa K. Minor, 2006: CRC Press, Boca Raton, Fla.; Gao et al., “A broad activity screen in support of a chemogenomic map for kinase signalling research and drug discovery,” Biochem J. 2013, 451(2): 313-28; and Eglen et al., “Drug discovery and the human kinome: Recent trends,” Pharmacology & Therapeutics 2011, 130(2): 144-156. The kinase was then added to the substrate solution and gently mixed. […] This was followed by incubation at room temperature for 2 h. The reaction was terminated and any unreacted phosphate was washed away using 0.1% phosphoric acid prior to detection utilizing a proprietary technology. […] DMSO was used as the negative control.
(§2) Percent inhibition was expressed as an average where the assay was performed more than once, e.g., in duplicate.

FGFR4 = target: T2, FGFR4 (Homo sapiens, UniProt P22455)
T2 construct: purchased Reaction Biology Corp
T2 sequence (P22455 22-802): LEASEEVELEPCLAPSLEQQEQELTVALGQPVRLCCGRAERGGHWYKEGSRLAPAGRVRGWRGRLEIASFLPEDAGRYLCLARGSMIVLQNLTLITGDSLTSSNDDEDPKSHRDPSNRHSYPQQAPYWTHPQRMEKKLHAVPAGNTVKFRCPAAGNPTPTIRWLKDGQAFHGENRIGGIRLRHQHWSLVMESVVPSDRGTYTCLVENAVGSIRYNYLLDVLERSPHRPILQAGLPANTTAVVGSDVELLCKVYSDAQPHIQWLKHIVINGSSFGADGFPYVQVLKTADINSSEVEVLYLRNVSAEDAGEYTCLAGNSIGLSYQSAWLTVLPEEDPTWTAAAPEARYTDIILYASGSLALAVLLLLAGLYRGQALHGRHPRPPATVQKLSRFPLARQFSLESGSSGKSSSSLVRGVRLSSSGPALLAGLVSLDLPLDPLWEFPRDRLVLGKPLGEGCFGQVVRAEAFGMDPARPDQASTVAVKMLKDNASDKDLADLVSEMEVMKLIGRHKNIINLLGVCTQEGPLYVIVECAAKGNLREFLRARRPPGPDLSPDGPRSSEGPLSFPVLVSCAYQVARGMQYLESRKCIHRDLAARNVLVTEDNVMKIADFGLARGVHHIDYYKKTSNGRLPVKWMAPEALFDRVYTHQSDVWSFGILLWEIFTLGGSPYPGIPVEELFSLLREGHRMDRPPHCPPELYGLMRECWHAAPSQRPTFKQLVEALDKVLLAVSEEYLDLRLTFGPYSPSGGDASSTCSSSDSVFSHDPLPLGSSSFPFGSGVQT
Experimental: as §1, §2

GRK6 = target: T3, GRK6 (Homo sapiens, UniProt P43250)
T3 construct: purchased Reaction Biology Corp
T3 sequence (P43250 whole entry): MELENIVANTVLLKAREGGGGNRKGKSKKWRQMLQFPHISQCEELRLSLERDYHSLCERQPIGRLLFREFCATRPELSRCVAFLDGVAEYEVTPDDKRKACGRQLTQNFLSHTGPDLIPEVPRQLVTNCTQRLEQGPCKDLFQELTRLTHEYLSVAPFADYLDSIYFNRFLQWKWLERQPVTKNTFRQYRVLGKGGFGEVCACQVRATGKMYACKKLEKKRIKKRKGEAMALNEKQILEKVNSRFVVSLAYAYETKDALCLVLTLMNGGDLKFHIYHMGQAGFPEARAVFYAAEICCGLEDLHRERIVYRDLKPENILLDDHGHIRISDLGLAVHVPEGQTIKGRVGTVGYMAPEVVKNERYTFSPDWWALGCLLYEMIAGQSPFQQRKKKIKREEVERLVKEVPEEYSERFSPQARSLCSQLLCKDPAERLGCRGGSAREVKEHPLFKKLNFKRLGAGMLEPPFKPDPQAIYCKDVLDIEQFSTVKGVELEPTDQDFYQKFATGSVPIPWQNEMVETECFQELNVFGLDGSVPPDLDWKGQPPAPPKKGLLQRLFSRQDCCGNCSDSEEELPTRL
Experimental: as §1, §2

IRAK1 = target: T4, IRAK1 (Homo sapiens, UniProt P51617)
T4 construct: purchased Reaction Biology Corp
T4 sequence (P51617 whole entry): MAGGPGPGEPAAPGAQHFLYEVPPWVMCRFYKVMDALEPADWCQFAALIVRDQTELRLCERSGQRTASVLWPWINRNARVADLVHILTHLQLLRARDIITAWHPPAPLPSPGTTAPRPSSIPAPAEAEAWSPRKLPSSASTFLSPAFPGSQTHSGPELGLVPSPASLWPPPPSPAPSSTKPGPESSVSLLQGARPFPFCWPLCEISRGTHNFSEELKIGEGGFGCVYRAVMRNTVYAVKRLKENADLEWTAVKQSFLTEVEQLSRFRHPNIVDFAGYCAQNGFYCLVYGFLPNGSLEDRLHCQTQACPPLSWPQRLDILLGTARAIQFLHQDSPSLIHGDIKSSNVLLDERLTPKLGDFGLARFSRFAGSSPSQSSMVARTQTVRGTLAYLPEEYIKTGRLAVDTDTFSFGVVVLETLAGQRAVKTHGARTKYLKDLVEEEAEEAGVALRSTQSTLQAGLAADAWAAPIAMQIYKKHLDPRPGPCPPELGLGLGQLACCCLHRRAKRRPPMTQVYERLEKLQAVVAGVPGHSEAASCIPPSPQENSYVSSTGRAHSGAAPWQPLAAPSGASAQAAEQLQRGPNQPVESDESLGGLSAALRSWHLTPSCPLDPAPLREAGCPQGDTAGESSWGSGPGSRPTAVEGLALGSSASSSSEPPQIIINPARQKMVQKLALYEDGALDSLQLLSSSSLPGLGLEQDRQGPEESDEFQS
Experimental: as §1, §2

PKCd = target: T5, PKCd (Homo sapiens, UniProt Q05655)
T5 construct: purchased Reaction Biology Corp
Experimental: as §1, §2

PYK2 = target: T6, PYK2 (Homo sapiens, UniProt Q14289)
T6 construct: purchased Reaction Biology Corp
T6 sequence (Q14289 whole entry): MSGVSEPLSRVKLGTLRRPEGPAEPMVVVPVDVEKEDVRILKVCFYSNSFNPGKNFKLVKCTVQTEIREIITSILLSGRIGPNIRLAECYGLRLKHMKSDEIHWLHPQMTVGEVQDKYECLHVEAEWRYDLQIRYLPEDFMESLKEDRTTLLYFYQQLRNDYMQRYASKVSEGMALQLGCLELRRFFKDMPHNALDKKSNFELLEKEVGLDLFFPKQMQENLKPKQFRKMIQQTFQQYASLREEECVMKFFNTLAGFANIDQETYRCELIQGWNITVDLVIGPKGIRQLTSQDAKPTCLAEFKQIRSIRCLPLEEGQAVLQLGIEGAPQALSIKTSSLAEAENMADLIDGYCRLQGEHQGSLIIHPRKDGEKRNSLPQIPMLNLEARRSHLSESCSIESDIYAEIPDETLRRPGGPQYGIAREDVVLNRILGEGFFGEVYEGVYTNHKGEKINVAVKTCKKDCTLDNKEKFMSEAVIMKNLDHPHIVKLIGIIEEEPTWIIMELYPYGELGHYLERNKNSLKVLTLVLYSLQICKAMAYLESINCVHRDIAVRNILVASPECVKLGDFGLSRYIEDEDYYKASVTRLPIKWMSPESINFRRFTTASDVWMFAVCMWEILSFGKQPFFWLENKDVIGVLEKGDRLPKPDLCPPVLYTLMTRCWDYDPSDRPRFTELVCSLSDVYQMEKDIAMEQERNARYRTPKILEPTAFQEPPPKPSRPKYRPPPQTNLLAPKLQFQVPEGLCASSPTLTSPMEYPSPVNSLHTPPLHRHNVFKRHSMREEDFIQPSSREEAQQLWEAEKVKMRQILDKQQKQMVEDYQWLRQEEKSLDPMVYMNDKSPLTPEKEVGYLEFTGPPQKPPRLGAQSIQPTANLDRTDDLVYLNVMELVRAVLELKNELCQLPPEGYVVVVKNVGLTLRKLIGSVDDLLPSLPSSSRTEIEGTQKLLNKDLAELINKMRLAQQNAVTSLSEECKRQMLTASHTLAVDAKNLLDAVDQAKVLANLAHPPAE
Experimental: as §1, §2

SLK/STK2 = target: T7, SLK/STK2 (Homo sapiens, UniProt Q9H2G2)
T7 construct: purchased Reaction Biology Corp
T7 sequence (Q9H2G2 whole entry): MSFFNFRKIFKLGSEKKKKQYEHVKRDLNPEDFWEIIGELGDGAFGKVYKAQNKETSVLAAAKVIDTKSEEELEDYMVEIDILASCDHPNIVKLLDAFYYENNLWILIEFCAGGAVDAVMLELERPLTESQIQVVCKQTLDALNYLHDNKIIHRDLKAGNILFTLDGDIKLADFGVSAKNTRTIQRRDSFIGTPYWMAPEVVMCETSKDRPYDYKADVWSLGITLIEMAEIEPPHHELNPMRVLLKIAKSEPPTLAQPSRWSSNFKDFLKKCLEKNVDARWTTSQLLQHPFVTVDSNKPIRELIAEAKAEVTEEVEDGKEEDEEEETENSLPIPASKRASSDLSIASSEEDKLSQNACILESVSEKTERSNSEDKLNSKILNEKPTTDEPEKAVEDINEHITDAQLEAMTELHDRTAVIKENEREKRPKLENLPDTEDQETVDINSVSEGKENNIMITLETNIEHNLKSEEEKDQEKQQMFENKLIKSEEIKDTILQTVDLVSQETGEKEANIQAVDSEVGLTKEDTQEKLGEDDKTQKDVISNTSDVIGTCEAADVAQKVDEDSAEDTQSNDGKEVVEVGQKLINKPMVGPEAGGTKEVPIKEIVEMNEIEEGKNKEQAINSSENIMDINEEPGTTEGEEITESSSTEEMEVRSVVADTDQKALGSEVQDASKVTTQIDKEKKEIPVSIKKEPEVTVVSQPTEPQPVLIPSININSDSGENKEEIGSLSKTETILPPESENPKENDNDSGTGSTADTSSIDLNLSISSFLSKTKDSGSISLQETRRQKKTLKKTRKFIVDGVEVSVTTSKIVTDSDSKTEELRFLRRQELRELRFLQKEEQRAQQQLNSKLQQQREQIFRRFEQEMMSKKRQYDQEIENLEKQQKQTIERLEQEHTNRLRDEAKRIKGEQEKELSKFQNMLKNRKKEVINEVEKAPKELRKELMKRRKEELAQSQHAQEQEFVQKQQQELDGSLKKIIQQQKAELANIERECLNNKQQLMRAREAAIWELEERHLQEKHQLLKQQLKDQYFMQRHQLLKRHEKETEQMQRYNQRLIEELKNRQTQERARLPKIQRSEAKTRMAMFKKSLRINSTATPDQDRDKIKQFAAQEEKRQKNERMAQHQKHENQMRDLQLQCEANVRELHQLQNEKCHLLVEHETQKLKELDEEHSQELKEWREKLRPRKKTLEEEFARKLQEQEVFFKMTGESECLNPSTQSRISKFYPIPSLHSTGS
Experimental: as §1, §2

STK39/STLK3 = target: T8, STK39/STLK3 (Homo sapiens, UniProt Q9UEW8)
T8 construct: purchased Reaction Biology Corp
Experimental: as §1, §2

TEC = target: T9, TEC (Homo sapiens, UniProt P42680)
T9 construct: purchased Reaction Biology Corp
T9 sequence (P42680 1-631): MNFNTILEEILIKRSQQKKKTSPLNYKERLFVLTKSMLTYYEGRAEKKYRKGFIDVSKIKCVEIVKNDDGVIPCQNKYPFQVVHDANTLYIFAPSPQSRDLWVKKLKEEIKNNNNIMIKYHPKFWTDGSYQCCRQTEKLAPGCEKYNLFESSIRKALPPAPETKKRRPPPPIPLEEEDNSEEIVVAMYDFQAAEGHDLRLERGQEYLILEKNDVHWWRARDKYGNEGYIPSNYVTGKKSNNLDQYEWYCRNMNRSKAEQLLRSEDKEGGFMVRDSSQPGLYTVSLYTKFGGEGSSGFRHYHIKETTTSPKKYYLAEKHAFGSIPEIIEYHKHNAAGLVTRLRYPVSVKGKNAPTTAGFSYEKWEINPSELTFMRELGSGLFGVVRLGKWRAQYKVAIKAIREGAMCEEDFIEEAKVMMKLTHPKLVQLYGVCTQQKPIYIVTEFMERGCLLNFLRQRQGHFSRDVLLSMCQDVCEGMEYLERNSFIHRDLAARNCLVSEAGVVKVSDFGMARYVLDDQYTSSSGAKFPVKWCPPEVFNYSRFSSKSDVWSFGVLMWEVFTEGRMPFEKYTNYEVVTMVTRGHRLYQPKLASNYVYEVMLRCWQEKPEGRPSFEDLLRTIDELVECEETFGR
Experimental: as §1, §2

TLK1 = target: T10, TLK1 (Homo sapiens, UniProt Q9UKI8)
T10 construct: purchased Reaction Biology Corp
T10 sequence (Q9UKI8 1-766): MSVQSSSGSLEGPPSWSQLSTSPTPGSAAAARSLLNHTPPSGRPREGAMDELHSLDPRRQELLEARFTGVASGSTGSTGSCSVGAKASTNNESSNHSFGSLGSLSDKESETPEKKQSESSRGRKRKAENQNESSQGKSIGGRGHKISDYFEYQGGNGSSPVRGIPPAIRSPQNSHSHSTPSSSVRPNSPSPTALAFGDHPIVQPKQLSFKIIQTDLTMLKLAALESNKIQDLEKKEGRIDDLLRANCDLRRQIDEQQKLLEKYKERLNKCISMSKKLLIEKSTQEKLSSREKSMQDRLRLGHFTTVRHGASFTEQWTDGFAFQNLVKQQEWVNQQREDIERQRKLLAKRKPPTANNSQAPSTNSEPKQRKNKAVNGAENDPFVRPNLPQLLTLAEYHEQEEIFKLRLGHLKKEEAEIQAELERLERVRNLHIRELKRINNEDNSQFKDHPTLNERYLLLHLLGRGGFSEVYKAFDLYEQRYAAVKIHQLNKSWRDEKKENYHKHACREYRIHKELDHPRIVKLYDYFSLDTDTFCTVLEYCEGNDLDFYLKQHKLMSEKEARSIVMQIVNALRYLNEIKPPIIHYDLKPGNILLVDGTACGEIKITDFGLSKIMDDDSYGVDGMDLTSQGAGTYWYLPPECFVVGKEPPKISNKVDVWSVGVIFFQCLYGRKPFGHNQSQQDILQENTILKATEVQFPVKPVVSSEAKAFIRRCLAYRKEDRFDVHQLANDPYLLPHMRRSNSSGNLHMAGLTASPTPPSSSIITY
Experimental: as §1, §2

[1] = read-out: % Enzyme Activity (relative to DMSO controls) Run 1
[2] = read-out: % Enzyme Activity (relative to DMSO controls) Run 2

T1 sequence (Q9HAZ1 whole entry): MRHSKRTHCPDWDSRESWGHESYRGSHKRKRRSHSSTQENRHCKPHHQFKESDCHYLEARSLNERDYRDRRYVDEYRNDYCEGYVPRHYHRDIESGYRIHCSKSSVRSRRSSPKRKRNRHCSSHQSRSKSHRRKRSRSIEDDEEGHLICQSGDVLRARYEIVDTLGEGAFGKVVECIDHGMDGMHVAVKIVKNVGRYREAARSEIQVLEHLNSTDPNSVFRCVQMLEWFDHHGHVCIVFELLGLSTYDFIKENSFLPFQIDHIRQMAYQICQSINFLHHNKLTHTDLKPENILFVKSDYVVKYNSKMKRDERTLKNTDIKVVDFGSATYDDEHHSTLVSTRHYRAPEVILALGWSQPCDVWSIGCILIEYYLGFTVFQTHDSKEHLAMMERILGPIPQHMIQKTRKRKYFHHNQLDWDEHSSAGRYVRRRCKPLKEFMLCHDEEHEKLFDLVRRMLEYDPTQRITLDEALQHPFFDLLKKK

With C=CC(=O)Nc1cccc(Nc2nc(Nc3ccc(OCCOC)c(F)c3)ncc2F)c1 [Compound 2] the inhibition at 3 µM (CLK4) was 44.3%, the remaining activity at 3 µM (CLK4; [1]) was 57.4% and the remaining activity at 3 µM (CLK4; [2]) was 53.9%. It also gave an inhibition at 3 µM (FGFR4) of 35.1%, a remaining activity at 3 µM (FGFR4; [1]) of 66.3% and a remaining activity at 3 µM (FGFR4; [2]) of 63.4%. For the same compound, the inhibition at 3 µM (GRK6) was -3.03%, the remaining activity at 3 µM (GRK6; [1]) was 102% and the remaining activity at 3 µM (GRK6; [2]) was 104%. It also gave an inhibition at 3 µM (IRAK1) of 24.6%, a remaining activity at 3 µM (IRAK1; [1]) of 76.5% and a remaining activity at 3 µM (IRAK1; [2]) of 74.4%. It also gave an inhibition at 3 µM (PKCd) of 1.78%, a remaining activity at 3 µM (PKCd; [1]) of 100% and a remaining activity at 3 µM (PKCd; [2]) of 96%. It also gave an inhibition at 3 µM (PYK2) of 29.6%, a remaining activity at 3 µM (PYK2; [1]) of 70.6% and a remaining activity at 3 µM (PYK2; [2]) of 70.1%. For the same compound, the inhibition at 3 µM (SLK/STK2) was 24.9%, the remaining activity at 3 µM (SLK/STK2; [1]) was 74.9% and the remaining activity at 3 µM (SLK/STK2; [2]) was 75.3%. It also gave an inhibition at 3 µM (STK39/STLK3) of 7.74%, a remaining activity at 3 µM (STK39/STLK3; [1]) of 91.6% and a remaining activity at 3 µM (STK39/STLK3; [2]) of 92.9%. For the same compound, the inhibition at 3 µM (TEC) was 89.1%, the remaining activity at 3 µM (TEC; [1]) was 10.4% and the remaining activity at 3 µM (TEC; [2]) was 11.5%. The inhibition at 3 µM (TLK1) was -2.91%, the remaining activity at 3 µM (TLK1; [1]) was 102% and the remaining activity at 3 µM (TLK1; [2]) was 103%.
